Target: human topoisomerase IIα (Homo sapiens, UniProt P11388)
Assay: competition against DNA cleavage induced by […] 8-methyl-3′-
Type: biochemical

Sequence of human topoisomerase IIα (P11388 whole entry): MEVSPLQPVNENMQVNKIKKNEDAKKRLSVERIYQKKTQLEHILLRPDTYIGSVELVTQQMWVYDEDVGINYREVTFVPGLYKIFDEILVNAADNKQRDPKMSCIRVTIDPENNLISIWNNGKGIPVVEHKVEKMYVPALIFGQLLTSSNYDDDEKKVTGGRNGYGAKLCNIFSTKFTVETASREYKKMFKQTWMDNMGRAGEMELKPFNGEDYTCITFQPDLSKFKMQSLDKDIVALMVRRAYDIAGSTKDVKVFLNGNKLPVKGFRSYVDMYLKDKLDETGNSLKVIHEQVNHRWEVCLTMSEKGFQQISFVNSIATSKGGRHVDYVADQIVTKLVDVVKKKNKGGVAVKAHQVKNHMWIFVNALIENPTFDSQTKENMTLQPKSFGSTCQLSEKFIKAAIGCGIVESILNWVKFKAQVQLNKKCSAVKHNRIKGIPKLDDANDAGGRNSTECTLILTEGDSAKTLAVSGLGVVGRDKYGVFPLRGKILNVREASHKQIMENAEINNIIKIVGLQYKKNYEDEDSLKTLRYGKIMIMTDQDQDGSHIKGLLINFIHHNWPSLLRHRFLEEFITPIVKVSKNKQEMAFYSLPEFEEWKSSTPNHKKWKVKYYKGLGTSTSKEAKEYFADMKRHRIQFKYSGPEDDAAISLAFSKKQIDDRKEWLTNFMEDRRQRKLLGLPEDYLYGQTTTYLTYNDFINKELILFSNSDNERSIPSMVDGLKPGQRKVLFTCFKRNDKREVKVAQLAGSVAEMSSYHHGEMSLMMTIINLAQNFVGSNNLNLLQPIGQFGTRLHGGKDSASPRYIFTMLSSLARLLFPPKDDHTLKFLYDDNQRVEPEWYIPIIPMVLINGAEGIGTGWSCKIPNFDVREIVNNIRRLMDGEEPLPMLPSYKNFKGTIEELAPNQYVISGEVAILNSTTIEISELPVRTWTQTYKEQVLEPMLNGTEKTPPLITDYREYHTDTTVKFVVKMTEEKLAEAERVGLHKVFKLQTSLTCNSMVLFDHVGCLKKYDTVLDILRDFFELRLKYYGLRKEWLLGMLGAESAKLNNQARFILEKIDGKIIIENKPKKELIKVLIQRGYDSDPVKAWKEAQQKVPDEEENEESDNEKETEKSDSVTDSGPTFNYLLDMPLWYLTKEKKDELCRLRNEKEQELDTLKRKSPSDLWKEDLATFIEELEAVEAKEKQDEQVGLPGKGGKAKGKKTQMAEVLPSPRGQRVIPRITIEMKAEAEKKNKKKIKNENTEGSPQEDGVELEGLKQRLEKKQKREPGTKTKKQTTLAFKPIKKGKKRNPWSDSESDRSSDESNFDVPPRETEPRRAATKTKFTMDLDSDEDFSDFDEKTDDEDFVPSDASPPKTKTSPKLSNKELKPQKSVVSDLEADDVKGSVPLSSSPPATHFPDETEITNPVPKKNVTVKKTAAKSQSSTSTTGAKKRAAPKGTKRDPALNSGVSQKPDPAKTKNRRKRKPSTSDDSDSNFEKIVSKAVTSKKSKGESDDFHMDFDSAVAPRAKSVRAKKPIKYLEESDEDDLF

SMILES: NCC1CCN(c2cc3c(cc2F)c(=O)c(C(=O)O)cn3C2CC2)C1 (stereo not shown) [8-H-3′-(AM)P-FQ]
- IC50: ~50 µM

Reference: publication PMC3870039 (ACS chemical biology, 2013)
